In paper PMC8325362, “Drugs repurposed for COVID-19 by virtual screening of 6,218 drugs and cell-based assay” (Proceedings of the National Academy of Sciences of the …, 2021):
Where two headings read alike, the source gives them in different places.

Key:
[1] = tested on: RdRp; parameters: method as in ref 28 (a number printed in a supplementary file, which may have a reference list of its own: not looked up in the article's list); details: PDB 4WTG; read-out: Binding affinity to RdRp (IC50); cited from earlier work
[2] = in vitro; details: human
[3] = read-out: Approx. Cmax (maximum serum concentration); human, intravenous injection; cited from earlier work
[4] = tested on: SARS-CoV-2; assay: in vitro; details: African green monkey
[5] = tested on: SARS-CoV-2; assay: Checkerboard drug combination assay, SARS-CoV-2 inhibition in Vero cells; assay type: cell-based; details: Severe acute respiratory syndrome coronavirus 2, Vero, read-out: Relative viral inhibition (%); for inhibition at 0.63 µM: Remdesivir 0.63 μM; for inhibition at 1.26 µM: Remdesivir 1.26 μM; for inhibition at 2.52 µM: Remdesivir 2.52 μM; for inhibition at 5.05 µM: Remdesivir 5.05 μM; for inhibition at 10.09 µM: Remdesivir 10.09 μM; for inhibition at 20.18 µM: Remdesivir 20.18 μM; for inhibition at 40.36 µM: Remdesivir 40.36 μM
[6] = Checkerboard drug combination assay, cell viability of Vero cells; details: African green monkey, Vero cells (ATCC CCL-81), Relative cell viability (%); for viability at 24 h, 0.63 μM: Remdesivir 0.63 μM; for viability at 24 h, 1.26 μM: Remdesivir 1.26 μM; for viability at 24 h, 2.52 μM: Remdesivir 2.52 μM; for viability at 24 h, 5.05 μM: Remdesivir 5.05 μM; for viability at 24 h, 10.09 μM: Remdesivir 10.09 μM; for viability at 24 h, 20.18 μM: Remdesivir 20.18 μM; for viability at 24 h, 40.36 μM: Remdesivir 40.36 μM
[7] = tested on: SARS-CoV-2; assay: microbe, parasite or virus in culture; assay type: cell-based; details: Severe acute respiratory syndrome coronavirus 2, Calu-3, 24 h, Calu-3 cells, MOI 0.5, 24 h
[8] = tested on: SARS-CoV-2; assay: microbe, parasite or virus in culture; details: Severe acute respiratory syndrome coronavirus 2, Vero, 24 h, read-out: SARS-CoV-2 IC50 in Vero cells
[9] = tested on: COVID-19; details: cited from earlier work
[10] = in vitro; details: African green monkey
[11] = tested on: SARS-CoV-2; details: assay validation with reference drugs
[12] = tested on: RdRp; parameters: method as in ref 29 (a number printed in a supplementary file, which may have a reference list of its own: not looked up in the article's list); details: PDB 1T05; read-out: Binding affinity to RdRp (IC50); cited from earlier work
[13] = tested on: Mpro; details: read-out: Binding affinity to Mpro (IC50); PDB 6W63; cited from earlier work
[14] = target: M^pro (Severe acute respiratory syndrome coronavirus 2, UniProt P0DTD1); assay type: biochemical; details: FRET assay, 0.1 to 50 μM
[15] = read-out: Approx. Cmax (maximum serum concentration); rat, oral; cited from earlier work
[16] = Cytotoxicity (CC50) in Calu-3 cells; details: human
[17] = Cytotoxicity (CC50) in Vero cells; details: African green monkey
[18] = target: SARS-CoV-2 RdRp (Severe acute respiratory syndrome coronavirus 2, UniProt P0DTD1); assay: RdRp enzyme assay kit; assay type: biochemical; parameters: dose or concentration left out as unconfirmed; details: positive control, even at high concentrations

Q: Which IC50 [1] does the source give for `CC(C)OC(=O)[C@H](C)N[P@](=O)(OC[C@H]1O[C@@H](n2ccc(=O)[nH]c2=O)[C@](C)(F)[C@@H]1O)Oc1ccccc1` [6GS (sofosbuvir)] here?
A: 0.064 µM

Q: Which CC50 [2] does the source give for `CCC(CC)COC(=O)[C@H](C)N[P@](=O)(OC[C@H]1O[C@@](C#N)(c2ccc3c(N)ncnn23)[C@H](O)[C@@H]1O)Oc1ccccc1` [Remdesivir] here?
A: > 50 µM

Q: And the Cmax [3]?
A: ~9 µM

Q: What about the selectivity ratio [4] of the same compound?
A: 4.96

Q: What about the inhibition at 0.63 µM ([5]; Fig. 4A, Omipalisib 0.00 μM) of the same compound?
A: 4%

Q: What about the inhibition at 1.26 µM ([5]; Fig. 4A, Omipalisib 0.00 μM) of the same compound?
A: 4%

Q: What about the inhibition at 2.52 µM ([5]; Fig. 4A, Omipalisib 0.00 μM) of the same compound?
A: 1%

Q: And the inhibition at 5.05 µM ([5]; Fig. 4A, Omipalisib 0.00 μM)?
A: 20%

Q: What about the inhibition at 10.09 µM ([5]; Fig. 4A, Omipalisib 0.00 μM) of the same compound?
A: 55%

Q: And the inhibition at 20.18 µM ([5]; Fig. 4A, Omipalisib 0.00 μM)?
A: 81%

Q: And the inhibition at 40.36 µM ([5]; Fig. 4A, Omipalisib 0.00 μM)?
A: 89%

Q: And the inhibition at 0.63 µM ([5]; Fig. 4G, Tipifarnib 0.00 μM)?
A: 1%

Q: What about the inhibition at 1.26 µM ([5]; Fig. 4G, Tipifarnib 0.00 μM) of the same compound?
A: 3%

Q: What about the inhibition at 2.52 µM ([5]; Fig. 4G, Tipifarnib 0.00 μM) of the same compound?
A: 16%

Q: And the inhibition at 5.05 µM ([5]; Fig. 4G, Tipifarnib 0.00 μM)?
A: 54%

Q: And the inhibition at 10.09 µM ([5]; Fig. 4G, Tipifarnib 0.00 μM)?
A: 91%

Q: What about the inhibition at 20.18 µM ([5]; Fig. 4G, Tipifarnib 0.00 μM) of the same compound?
A: 97%

Q: What about the inhibition at 40.36 µM ([5]; Fig. 4G, Tipifarnib 0.00 μM) of the same compound?
A: 98%

Q: And the viability at 24 h, 0.63 μM ([6]; Fig. 4B, Omipalisib 0.00 μM)?
A: 86%

Q: And the viability at 24 h, 1.26 μM ([6]; Fig. 4B, Omipalisib 0.00 μM)?
A: 87%

Q: What about the viability at 24 h, 2.52 μM ([6]; Fig. 4B, Omipalisib 0.00 μM) of the same compound?
A: 87%

Q: What about the viability at 24 h, 5.05 μM ([6]; Fig. 4B, Omipalisib 0.00 μM) of the same compound?
A: 91%

Q: And the viability at 24 h, 10.09 μM ([6]; Fig. 4B, Omipalisib 0.00 μM)?
A: 92%

Q: And the viability at 24 h, 20.18 μM ([6]; Fig. 4B, Omipalisib 0.00 μM)?
A: 93%

Q: What about the viability at 24 h, 40.36 μM ([6]; Fig. 4B, Omipalisib 0.00 μM) of the same compound?
A: 93%

Q: What about the viability at 24 h, 0.63 μM ([6]; Fig. 4H, Tipifarnib 0.00 μM) of the same compound?
A: 88%

Q: What about the viability at 24 h, 1.26 μM ([6]; Fig. 4H, Tipifarnib 0.00 μM) of the same compound?
A: 90%

Q: And the viability at 24 h, 2.52 μM ([6]; Fig. 4H, Tipifarnib 0.00 μM)?
A: 94%

Q: What about the viability at 24 h, 5.05 μM ([6]; Fig. 4H, Tipifarnib 0.00 μM) of the same compound?
A: 97%

Q: And the viability at 24 h, 10.09 μM ([6]; Fig. 4H, Tipifarnib 0.00 μM)?
A: 95%

Q: And the viability at 24 h, 20.18 μM ([6]; Fig. 4H, Tipifarnib 0.00 μM)?
A: 98%

Q: What about the viability at 24 h, 40.36 μM ([6]; Fig. 4H, Tipifarnib 0.00 μM) of the same compound?
A: 94%

Q: And the IC50 [7]?
A: 2.49 µM

Q: And the IC50 [8]?
A: 10.1 µM

Q: And the “patients with clinical improvement” value ([9]; 36 out of 53 patients with severe illness)?
A: 68%

Q: And the average recovery time ([9]; COVID-19 patients, vs 15 d placebo)?
A: 11 days

Q: What about the clinical benefits ([9]; severe COVID-19 patients) of the same compound?
A: no statistically significant clinical benefits

Q: What about the CC50 [10] of the same compound?
A: > 50 µM

Q: And the “antiviral activity against SARS-CoV-2 in Vero cells” value [11]?
A: showed antiviral activity

Q: Which IC50 [12] does the source give for `C[C@H](Cn1cnc2c(N)ncnc21)OCP(=O)(O)O` [TNV (tenofovir)] here?
A: 1.3 µM

Q: For `CC(C)(C)c1ccc(N(C(=O)c2cnc[nH]2)[C@@H](C(=O)NC2CCCCC2)c2cccnc2)cc1` [X77], which IC50 [13] is on record?
A: 2.3 µM

Q: With `Cc1cc(O)c2c(c1)C(=O)c1cc(O)cc(O)c1C2=O` [Emodin] as the compound, how does the “inhibitory activity against M^pro” value [14] read?
A: showed inhibitory activities

Q: And the Cmax [15]?
A: ~0.078 µM

Q: And the CC50 at 24 h [16]?
A: > 50 µM

Q: What about the IC50 [7] of the same compound?
A: 27.9 µM

Q: And the IC50 [8]?
A: 31.4 µM

Q: And the CC50 at 24 h [17]?
A: > 50 µM

Q: Which “activity in RdRp assay” value [18] does the source give for `N#C[C@@]1(c2ccc3c(N)ncnn23)O[C@H](COP(=O)(O)OP(=O)(O)OP(=O)(O)O)[C@@H](O)[C@H]1O` [RDV-TP, remdesivir triphosphate] here?
A: did not show activity
